Assay results published in patent US9493411B2 (AbbVie Inc., priority 2013, dated 2016).

Experiments:
[1] = system: breast cancer cell line MX-1; experiment: MX-1 cell line proliferation assay; type: cell-based; details: Homo sapiens, MX1, 72 h, MX-1 cells, 3-day proliferation assay, Cell Titer Glo; read-out: Cellular proliferation: EC50
Procedure: The impact of compounds of the Examples on cancer cell proliferation was determined using the breast cancer cell line MX-1 (ATCC) in a 3-day proliferation assay and the data are reported in Table 1. MX-1 cells were maintained in RPMI 1640 medium (Sigma) supplemented with 10% FBS at 37° C. and an atmosphere of 5% CO2. For compound testing, MX-1 cells were plated in 96-well black bottom plates at a density of 5000 cells/well in 90 μL of culture media and incubated at 37° overnight to allow cell adhesion and spreading. Compound dilution series were prepared in DMSO via a 3-fold serial dilution from 3 mM to 0.1 μM. The DMSO dilution series were then diluted 1:100 in phosphate buffered saline, and 10 μL of the resulted solution were added to the appropriate wells of the MX-1 cell plate. The final compound concentrations in the wells were 3, 1, 0.3, 0.1, 0.03, 0.01, 0.003, 0.001, 0.0003 and 0.0001 μM.
Luminescence readings from the Cell Titer Glo assay were normalized to the DMSO treated cells and analyzed using the GraphPad Prism software with sigmoidal curve fitting to obtain EC50s. The minimum significant ratio (MSR) was determined to evaluate assay reproducibility (Eastwood et al., (2006) J Biomol Screen, 11: 253-261).

BRD4 (BDI_K57-E168) = biological target: T1, BRD4 (BDI_K57-E168) (Homo sapiens, UniProt O60885); experiment: TR-FRET bromodomain binding assay, BRD4 first bromodomain; details: His-tagged BD1, Alexa647-labeled probe 100 nM; Ki calculated from IC50
T1 construct: BD1: amino acids K57-E168; made in house
Outline: (§1)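 Competition of compound (50 μM-0.85 nM, 2% DMSO) against an Alexa647-labelled BET-inhibitor probe, 100 nM for BDI or 30 nM for BDII, on 8 nM His-BRD4 bromodomain detected by 1 nM Eu-anti-His; 20 mM sodium phosphate pH 6.0, 1 h room temperature. Normalised to unlabelled-probe controls; IC50 converted to Ki.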

BRD4 (BDII_E352-M457) = biological target: T2, BRD4 (BDII_E352-M457) (Homo sapiens, UniProt O60885); experiment: TR-FRET bromodomain binding assay, BRD4 second bromodomain; details: His-tagged BD2, Alexa647-labeled probe 30 nM; Ki calculated from IC50
T2 construct: made in house
Outline: as §1

Row | EC50 [1] | Ki (BRD4 (BDI_K57-E168)) | Ki (BRD4 (BDII_E352-M457)) | SMILES
1 | > 3000 nM | 627 nM | 2250 nM | Cc1[nH]c(-c2cc(CCO)ccc2OCc2ccccc2)cc1C(N)=O [Example 167, 5-[2-(benzyloxy)-5-(2-hydroxyethyl)phenyl]-2-methyl-1H-pyrrole-3-carboxamide]
2 | > 3000 nM | 1850 nM | 13200 nM | Cc1[nH]c(-c2ccccc2NS(=O)(=O)Cc2ccc(Cl)cc2)cc1C(N)=O [Example 85, 5-(2-{[(4-chlorobenzyl)sulfonyl]amino}phenyl)-2-methyl-1H-pyrrole-3-carboxamide]
3 | 1500 nM | 248 nM | 1870 nM | Cc1[nH]c(-c2ccccc2NCC2CCOC2)cc1C(N)=O (stereo not drawn) [Example 17, 2-methyl-5-{2-[(tetrahydrofuran-3-ylmethyl)amino]phenyl}-1H-pyrrole-3-carboxamide]
4 | > 3000 nM | 392 nM | 1900 nM | Cc1[nH]c(-c2ccccc2N(Cc2ccc(OCCCN(C)C)cc2)CC2CCCC2)cc1C(N)=O [Example 57, 5-{2-[(cyclopentylmethyl){4-[3-(dimethylamino)propoxy]benzyl}amino]phenyl}-2-methyl-1H-pyrrole-3-carboxamide]
5 | > 3000 nM | 366 nM | 465 nM | Cc1[nH]c(-c2ccccc2NS(=O)(=O)C2CCCC2)cc1C(N)=O [Example 87, 5-{2-[(cyclopentylsulfonyl)amino]phenyl}-2-methyl-1H-pyrrole-3-carboxamide]
6 | 998 nM | 249 nM | 1100 nM | Cc1[nH]c(-c2ccccc2Oc2ccc(N)cc2)cc1C(N)=O [Example 119, 5-[2-(4-aminophenoxy)phenyl]-2-methyl-1H-pyrrole-3-carboxamide]
7 | > 10000 nM | 446 nM | 14500 nM | Cc1[nH]c(-c2ccccc2NCC2CCNC2)cc1C(N)=O (stereo not drawn) [Example 42, 2-methyl-5-{2-[(pyrrolidin-3-ylmethyl)amino]phenyl}-1H-pyrrole-3-carboxamide]
8 | > 3000 nM | 237 nM | 653 nM | Cc1[nH]c(-c2ccccc2NS(=O)(=O)Cc2ccccc2)cc1C(N)=O [Example 83, 5-{2-[(benzylsulfonyl)amino]phenyl}-2-methyl-1H-pyrrole-3-carboxamide]
